The source of these data is patent US20230136569A1, “USE OF NMN TO REDUCE IMMUNODEPRESSION AND IMMUNOSENESCENCE” (NUVAMID SA, priority 2020, published 2023).

For one assay, the system named is thymocytes. Briefly: Flow cytometry of thymocytes from old mice. Format: in vivo. To be noted: 500 mg/kg p.o. in drinking water, 6 weeks (FIG. 3). As to the method: The administering of β-NMN at 500 mg/kg, of α-NMN at 500 mg/kg and of the vehicle (water) was obtained via oral route (p.o) in the drinking water to young and old mice. The solutions were prepared by dissolving the powder of β-NMN or α-NMN in the vehicle (water). The study comprised 4 groups each having 6 mice: • Group 1: young mice (aged 10 weeks)+drinking water (vehicle) • Groupe 2: old mice (aged 15 months)+drinking water (vehicle) • Group 3: old mice (aged 15 months)+compound I-B (alpha-NMN) in the drinking water • Group 4: old mice (aged 15 months)+compound I-A (beta-NMN) in the drinking water The water consumption of the mice was assessed per cage every other day. The mice were weighed every week. The mice in Group 3 were sacrificed after 4 weeks for organ collection and characterisation of T cell function. The mice in Group 4 were sacrificed after 6 weeks for organ collection and characterisation of T cell function. On the day of sacrifice, the mice were anaesthetised with Vetoflurane (isoflurane) and blood samples were taken from the retroorbital sinus. The blood was incubated for 30 minutes at ambient temperature and then centrifuged at 1300 g for 10 minutes. […] The thymus was weighed and measured to evaluate involution thereof. […] Measured parameters: The results of flow cytometry are expressed in number or as a proportion of cells per organ. […]
In general terms: In flow cytometry, cells or beads pass a laser one at a time.

Assay [1] deals with CD4+ and CD8+ T cells (splenocytes). Nature of the assay: Proliferation assay of CFSE-stained splenocytes from treated mice after stimulation. Format: in vivo. To be noted: splenocytes of treated old mice, anti-CD3/CD28 beads 96 h. As to the method: Proliferation assay: At D0+5 weeks, the splenocytes were marked with 2.5 μM CFSE and cultured at a concentration of 0.25×10^6 cells per well in a 96-well plate. The cells were stimulated with 2.5 μg InfluvacTetra® and incubated at 37° C. for 96 hours. The cells were then marked with anti-CD4 and CD8 antibodies and the proliferation of the T CD4+ and CD8+ cells was analysed by flow cytometry. The total splenocytes were stained with Carboxyfluorescein succinimidyl ester (CFSE) and stimulated with beads coated with anti-CD3/CD28 for 96 h. The mean fluorescence intensity of the CFSE was analysed and the ratio before and after stimulation was calculated.

Turning to `NC(=O)c1ccc[n+]([C@@H]2O[C@H](COP(=O)([O-])O)[C@@H](O)[C@H]2O)c1` (stereo in doubt) [I-A, nicotinamide mononucleotide], in the assay with thymocytes, the “number of CD8+ thymocytes” value is listed as “increase in the number of CD8+ thymocytes”. Besides, the “proliferation of CD4 cells” value in assay [1] (compared with the three other groups (FIG. 9A)) is “significant increase in the proliferation of CD4 and CD8 cells”. Also, the “proliferation of CD8 cells” value in assay [1] (compared with the three other groups (FIG. 9B)) was “significant increase in the proliferation of CD4 and CD8 cells”.
